Test results from PubChem BioAssay AID330 (DTP/NCI, 2004).
Where “and” joins values, the source holds several entries; their conditions need not be identical. Equal entries are not always repeated. Inconclusive results and toxic doses are left out.

System: P388 leukemia ip, CD2F1 mice, survival T/C
Test: NCI In Vivo Anticancer Drug Screen. Data for tumor model P388 Leukemia (intraperitoneal) in CD2F1 (CDF1) mice
Details: endpoint: median survival time, higher = longer survival
Procedure, shortened: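 Mice carrying the transplanted tumor received test compound or vehicle. Survival was recorded in each group, and the value is the treated-group measurement divided by that of the vehicle-treated control group.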

[1] = dose: 20.0 mg/kg/injection, schedule: Q01DX009 (ip), vehicle: saline with Tween-80
[2] = dose: 40.0 mg/kg/injection, schedule: Q01DX009 (ip), vehicle: saline with Tween-80
[3] = dose: 50.0 mg/kg/injection, schedule: Q01DX005 (ip), vehicle: saline
[4] = dose: 100.0 mg/kg/injection, schedule: Q01DX005 (ip), vehicle: saline
[5] = dose: 200.0 mg/kg/injection, schedule: Q01DX005 (ip), vehicle: saline
[6] = dose: 50.0 mg/kg/injection, schedule: Q01DX005 (ip), vehicle: Klucel (hydroxypropylcellulose) (HPC)
[7] = dose: 100.0 mg/kg/injection, schedule: Q01DX005 (ip), vehicle: Klucel (hydroxypropylcellulose) (HPC)
[8] = dose: 200.0 mg/kg/injection, schedule: Q01DX005 (ip), vehicle: Klucel (hydroxypropylcellulose) (HPC)
[9] = dose: 60.0 mg/kg/injection, schedule: Q01DX005 (ip), vehicle: saline with Tween-80
[10] = dose: 120.0 mg/kg/injection, schedule: Q01DX005 (ip), vehicle: saline with Tween-80
[11] = dose: 60.0 mg/kg/injection, schedule: Q01DX005 (ip), vehicle: saline
[12] = dose: 120.0 mg/kg/injection, schedule: Q01DX005 (ip), vehicle: saline
[13] = dose: 240.0 mg/kg/injection, schedule: Q01DX005 (ip), vehicle: saline
[14] = dose: 240.0 mg/kg/injection, schedule: Q01DX005 (ip), vehicle: saline with Tween-80

SMILES: COc1cc2c(cc1OC)[C@]13C[C@@H](OC)C=CC14OC4CN3CCC2 (stereo partly specified)
- T/C [1]: 90 % of control
- T/C [2]: 95 % of control
- T/C (dose: 80.0 mg/kg/injection, schedule: Q01DX009 (ip), vehicle: saline with Tween-80): 90 % of control
- T/C (dose: 150.0 mg/kg/injection, schedule: Q01DX009 (ip), vehicle: saline with Tween-80): 122 % of control

SMILES: COC(=O)C(C)(O)C(C)C1CO1 (stereo unspecified)
- T/C [3]: 98 % of control
- T/C [4]: 101 % of control
- T/C [5]: 121 % of control

SMILES: COc1nc(COC(=O)NC(C)C)c(COC(=O)NC(C)C)n1C
- T/C (dose: 12.5 mg/kg/injection, schedule: Q01DX005 (ip), vehicle: Klucel (hydroxypropylcellulose) (HPC)): 109 % of control
- T/C (dose: 25.0 mg/kg/injection, schedule: Q01DX005 (ip), vehicle: Klucel (hydroxypropylcellulose) (HPC)): 118 % of control
- T/C [6]: 123 % of control
- T/C [7]: 166 % of control
- T/C [8]: 189 % of control
- T/C (dose: 400.0 mg/kg/injection, schedule: Q01DX005 (ip), vehicle: Klucel (hydroxypropylcellulose) (HPC)): 196 % of control

SMILES: CCCCCCCCCCCC[C@@H](O)[C@H]1CC[C@H]([C@H](O)CCCC[C@H](O)CCCCC[C@@H](O)CC2=C[C@H](C)OC2=O)O1
- T/C (dose: 0.75 mg/kg/injection, schedule: Q01DX009 (ip), vehicle: other): 113 % of control
- T/C (dose: 1.5 mg/kg/injection, schedule: Q01DX009 (ip), vehicle: other): 105 % of control

SMILES: CCC(c1ccc(O)cc1)C(CC)c1ccc(OCCN)cc1 (stereo unspecified)
- T/C (dose: 30.0 mg/kg/injection, schedule: Q01DX005 (ip), vehicle: saline with Tween-80): 111 % of control
- T/C [9]: 103 % of control and 121 % of control
- T/C [10]: 100 % of control

SMILES: CCOC(=O)C12CCCC1=NN=C2C1=NN=C2CCCC21C(=O)OCC (stereo unspecified)
- T/C [11]: 103 % of control
- T/C [12]: 98 % of control
- T/C [13]: 101 % of control

SMILES: CCN=c1c([N+](=O)[O-])c(NC(=O)c2ccccc2)sn1CC
- T/C (dose: 100.0 mg/kg/injection, schedule: Q04DX002 (ip), vehicle: Klucel (hydroxypropylcellulose) (HPC)): 97 % of control
- T/C (dose: 200.0 mg/kg/injection, schedule: Q04DX002 (ip), vehicle: Klucel (hydroxypropylcellulose) (HPC)): 99 % of control
- T/C (dose: 400.0 mg/kg/injection, schedule: Q04DX002 (ip), vehicle: Klucel (hydroxypropylcellulose) (HPC)): 107 % of control

SMILES: CCCCOP(O)(=S)OCCCC
- T/C (dose: 100.0 mg/kg/injection, schedule: Q04DX002 (ip), vehicle: saline with Tween-80): 108 % of control
- T/C (dose: 100.0 mg/kg/injection, schedule: Q04DX003 (ip), vehicle: saline with Tween-80): 105 % of control and 100 % of control
- T/C (dose: 200.0 mg/kg/injection, schedule: Q04DX002 (ip), vehicle: saline with Tween-80): 104 % of control
- T/C (dose: 200.0 mg/kg/injection, schedule: Q04DX003 (ip), vehicle: saline with Tween-80): 106 % of control and 100 % of control
- T/C (dose: 400.0 mg/kg/injection, schedule: Q04DX002 (ip), vehicle: saline with Tween-80): 95 % of control
- T/C (dose: 400.0 mg/kg/injection, schedule: Q04DX003 (ip), vehicle: saline with Tween-80): 101 % of control and 106 % of control

SMILES: CC(C)(C)c1cc(Cc2ccccc2)c(O)c(C(C)(C)C)c1
- T/C (dose: 50.0 mg/kg/injection, schedule: Q01DX005 (ip), vehicle: distilled water + alcohol): 100 % of control
- T/C (dose: 100.0 mg/kg/injection, schedule: Q01DX005 (ip), vehicle: distilled water + alcohol): 103 % of control
- T/C (dose: 200.0 mg/kg/injection, schedule: Q01DX005 (ip), vehicle: distilled water + alcohol): 111 % of control

SMILES: CC(Cl)C(=O)Nc1cc2ccccc2oc1=O (stereo unspecified)
- T/C [9]: 106 % of control
- T/C [10]: 94 % of control
- T/C [14]: 93 % of control

SMILES: BrC1C2CC/C=C\CCC12 (stereo unspecified)
- T/C [9]: 100 % of control
- T/C [10]: 104 % of control
- T/C [14]: 104 % of control

SMILES: Oc1cc2c(cc1C(c1ccc3c(c1)OCO3)N1CCN(C(c3ccc4c(c3)OCO4)c3cc4c(cc3O)OCO4)CC1)OCO2 (stereo unspecified)
- T/C [9]: 89 % of control
- T/C [10]: 87 % of control
- T/C [14]: 89 % of control

SMILES: O=C(CCCCCCCCc1ccc(O)cc1)c1c(O)cccc1O
- T/C (dose: 6.5 mg/kg/injection, schedule: Q01DX009 (ip), vehicle: Klucel (hydroxypropylcellulose) (HPC)): 101 % of control
- T/C (dose: 13.0 mg/kg/injection, schedule: Q01DX009 (ip), vehicle: Klucel (hydroxypropylcellulose) (HPC)): 108 % of control
- T/C (dose: 26.0 mg/kg/injection, schedule: Q01DX009 (ip), vehicle: Klucel (hydroxypropylcellulose) (HPC)): 95 % of control
- T/C (dose: 52.0 mg/kg/injection, schedule: Q01DX009 (ip), vehicle: Klucel (hydroxypropylcellulose) (HPC)): 105 % of control

SMILES: CSC1=NCc2c(sc3c2CCCC3)N1
- T/C [6]: 100 % of control
- T/C [7]: 106 % of control
- T/C [8]: 98 % of control

SMILES: CC[C@@H]1C[C@H]2CN(CCc3c([nH]c4ccccc34)[C@@](C(=O)OC)(c3cc4c(cc3OC)N(C)[C@H]3[C@@](O)(C(=O)OC)[C@H](OC(C)=O)[C@]5(CC)CCCN6CC[C@]43[C@@H]65)C2)C1
- T/C (dose: 0.06 mg/kg/injection, schedule: Q01DX009 (ip), vehicle: water): 104 % of control
- T/C (dose: 0.13 mg/kg/injection, schedule: Q01DX009 (ip), vehicle: water): 104 % of control
- T/C (dose: 0.25 mg/kg/injection, schedule: Q01DX009 (ip), vehicle: water): 105 % of control and 110 % of control
- T/C (dose: 0.5 mg/kg/injection, schedule: Q01DX009 (ip), vehicle: water): 108 % of control and 118 % of control
- T/C (dose: 2.0 mg/kg/injection, schedule: Q01DX009 (ip), vehicle: saline with Tween-80): 150 % of control
- T/C (dose: 4.0 mg/kg/injection, schedule: Q01DX009 (ip), vehicle: saline with Tween-80): 159 % of control

SMILES: C1CC2(CC3(C1)SCCS3)SCCS2
- T/C (dose: 50.0 mg/kg/injection, schedule: Q01DX009 (ip), vehicle: Klucel (hydroxypropylcellulose) (HPC)): 94 % of control
- T/C (dose: 100.0 mg/kg/injection, schedule: Q01DX009 (ip), vehicle: Klucel (hydroxypropylcellulose) (HPC)): 101 % of control
- T/C (dose: 200.0 mg/kg/injection, schedule: Q01DX009 (ip), vehicle: Klucel (hydroxypropylcellulose) (HPC)): 101 % of control

SMILES: CCN(CC)CCCNc1c(O)cc(C)c2sc3ccccc3c(=O)c12
- T/C (dose: 50.0 mg/kg/injection, schedule: Q01DX009 (ip), vehicle: saline with Tween-80): 94 % of control
- T/C (dose: 100.0 mg/kg/injection, schedule: Q01DX009 (ip), vehicle: saline with Tween-80): 94 % of control
- T/C (dose: 200.0 mg/kg/injection, schedule: Q01DX009 (ip), vehicle: saline with Tween-80): 100 % of control

SMILES: CCCCCCC(C)N=[N+]([O-])CC(C)OC(C)=O (stereo unspecified)
- T/C (dose: 10.0 mg/kg/injection, schedule: Q01DX009 (ip), vehicle: saline with Tween-80): 121 % of control
- T/C [1]: 105 % of control
- T/C [2]: 121 % of control

SMILES: NC(CSSCC(N)C(=O)NCC(=O)O)C(=O)NCC(=O)O (stereo unspecified)
- T/C [3]: 106 % of control
- T/C [4]: 100 % of control
- T/C [5]: 104 % of control

SMILES: CC(C)=C(C#N)N(C)C(C)(C)C
- T/C (dose: 50.0 mg/kg/injection, schedule: Q01DX009 (ip), vehicle: saline): 100 % of control
- T/C (dose: 100.0 mg/kg/injection, schedule: Q01DX009 (ip), vehicle: saline): 97 % of control

SMILES: CCC[CH2][Sn]1([CH2]CCC)[O]C2C(OC)OC3COC(c4ccccc4)OC3C2[O]1 (stereo unspecified)
- T/C (dose: 12.5 mg/kg/injection, schedule: Q04DX003 (ip), vehicle: saline): 105 % of control
- T/C (dose: 25.0 mg/kg/injection, schedule: Q04DX003 (ip), vehicle: saline): 110 % of control
- T/C (dose: 50.0 mg/kg/injection, schedule: Q04DX003 (ip), vehicle: saline): 112 % of control

SMILES: O=C1NC(=O)C2(O)NC(=O)NC2(O)N1 (stereo unspecified)
- T/C (dose: 25.0 mg/kg/injection, schedule: Q01DX005 (ip), vehicle: saline): 100 % of control
- T/C [3]: 106 % of control
- T/C [4]: 101 % of control
- T/C [5]: 116 % of control
- T/C (dose: 400.0 mg/kg/injection, schedule: Q01DX005 (ip), vehicle: saline): 116 % of control

SMILES: CN1CCc2nc(N)nc(-c3nc(N)nc4c3CN(C)CC4)c2C1
- T/C [11]: 100 % of control
- T/C [12]: 104 % of control
- T/C [13]: 106 % of control

SMILES: CC(C)(C(=O)O[Si](C)(C)C)/C(=C/[Si](C)(C)C)O[Si](C)(C)C
- T/C (dose: 100.0 mg/kg/injection, schedule: Q01DX001 (ip), vehicle: saline with Tween-80): 103 % of control
- T/C (dose: 200.0 mg/kg/injection, schedule: Q01DX001 (ip), vehicle: saline with Tween-80): 99 % of control
- T/C (dose: 400.0 mg/kg/injection, schedule: Q01DX001 (ip), vehicle: saline with Tween-80): 102 % of control

SMILES: Cc1cc(Cl)ccc1NC(=O)Oc1ccc(C#N)cc1
- T/C [9]: 90 % of control
- T/C [10]: 90 % of control
- T/C [14]: 90 % of control
